Experiments:
[1] = system: myofibroblast formation; details: animal studies of capsular contracture with breast implants; cited from earlier work
[2] = given preoperatively
[3] = system: fibrinolysis; assay: tranexamic acid concentrations effective against fibrinolysis; details: relative to doses used in the non-GLP acute porcine study

Compound | myofibroblast formation [1] | time to reach plasma concentrations [2] [min] | dose effective in reversing fibrinolysis [3]
O=S(=O)([O-])CCS.[Na+] [MESNA, sodium 2-mercaptoethane sulfonate] | diminish myofibroblast formation |  | 
NC[C@H]1CC[C@H](C(=O)O)CC1 [tranexamic acid] |  | 5 to 15 | one tenth of the doses used in the non-GLP acute porcine study
